This note sets out measurements from the NIST ThermoML archive (doi:10.1021/je400630f).

SMILES strings stand for the structures. Several values for one entry are separate records, joined by “and”; a condition that tells them apart may be missing. Equal values may be shown once. ± gives the expanded uncertainty stated by the source.

The conditions of one series: 283.15 K; 100 kPa; Liquid.
For `CCCCCCCCO` [octan-1-ol], the mass density (commonly the mass of a sample divided by its volume) came to 832.1 ± 1.2 kg/m3.
As for `CCCCCO` [pentan-1-ol], the mass density is listed as 822.1 ± 1.3 kg/m3.

Staying with this series, now noted: 283.15 K; 100 kPa; Liquid; Capillary tube (Ostwald / Ubbelohde) method.
As to `CCCCO` [butan-1-ol], the viscosity (as a rule, the internal friction of a fluid under shear) was determined as 3.822 ± 0.079 mPa·s.
As to `CCCCCCCCCCO` [decan-1-ol], the viscosity stood at 22.06 ± 0.45 mPa·s.
On the same count and under the same terms, next, `CCO` [ethanol]: 1.475 ± 0.031 mPa·s; `CCCCCCCO` [heptan-1-ol]: 10.15 ± 0.21 mPa·s; `CCCCCCCCCO` [nonan-1-ol]: 17.44 ± 0.36 mPa·s.
`CCCCCCCCO` [octan-1-ol]: the viscosity is on record as 13.49 ± 0.28 mPa·s.
Take `CCCCCO` [pentan-1-ol]: the viscosity came out at 5.417 ± 0.11 mPa·s.

Still in this series, the particulars now being: 293.15 K; 100 kPa; Liquid.
For the compound `CCCCO` [butan-1-ol], the mass density was 809.6 ± 1.3 kg/m3.
With `CCCCCCCCCCO` [decan-1-ol], the mass density stood at 829.9 ± 1.2 kg/m3.
Still for that read-out and setting: in the case of `CCO` [ethanol] it was 789.5 ± 1.4 kg/m3; in that of `CCCCCCCO` [heptan-1-ol], 822.6 ± 1.3 kg/m3.
On to `CCCCCCCCCO` [nonan-1-ol], for which the mass density was 828.1 ± 1.3 kg/m3.
Turning to `CCCCCCCCO` [octan-1-ol], the mass density was determined as 825.2 ± 1.2 kg/m3.
Still for that read-out and setting: next, `CCCCCO` [pentan-1-ol]: 814.7 ± 1.3 kg/m3.

The same series, now with this note: 293.15 K; 100 kPa; Liquid; Capillary tube (Ostwald / Ubbelohde) method.
Turning to `CCCCO` [butan-1-ol], the viscosity is on record as 2.859 ± 0.059 mPa·s.
Regarding `CCCCCCCCCCO` [decan-1-ol], the viscosity was found to be 14.5 ± 0.3 mPa·s.
The same measure, in the same setting: in the case of `CCO` [ethanol] it was 1.196 ± 0.025 mPa·s; in that of `CCCCCCCO` [heptan-1-ol], 7.026 ± 0.15 mPa·s; in that of `CCCCCCCCCO` [nonan-1-ol], 11.63 ± 0.24 mPa·s.
Still for that read-out and setting: in the case of `CCCCCCCCO` [octan-1-ol] it was 9.016 ± 0.19 mPa·s; in that of `CCCCCO` [pentan-1-ol], 3.974 ± 0.083 mPa·s.

Still in this series, the particulars now being: 298.15 K; 100 kPa; Liquid.
For the compound `CCCCO` [butan-1-ol], the mass density was 805.8 ± 1.3 kg/m3.
On to `CCCCCCCCCCO` [decan-1-ol], for which the mass density came to 826.5 ± 1.2 kg/m3.
Take `CCO` [ethanol]: the mass density was 785.2 ± 1.4 kg/m3.
Consider `CCCCCCCO` [heptan-1-ol], for which the mass density is given as 819.1 ± 1.3 kg/m3.
On to `CCCCCCCCCO` [nonan-1-ol], for which the mass density is recorded as 824.7 ± 1.3 kg/m3.
The same measure, in the same setting: in the case of `CCCCCCCCO` [octan-1-ol] it was 821.9 ± 1.2 kg/m3; in that of `CCCCCO` [pentan-1-ol], 811.2 ± 1.3 kg/m3.

The series is the same for the next values; noted with them: 298.15 K; 100 kPa; Liquid; Capillary tube (Ostwald / Ubbelohde) method.
Turning to `CCCCO` [butan-1-ol], the viscosity is on record as 2.558 ± 0.053 mPa·s.
Same read-out and setting: next, `CCCCCCCCCCO` [decan-1-ol]: 11.47 ± 0.24 mPa·s; `CCO` [ethanol]: 1.102 ± 0.023 mPa·s; `CCCCCCCO` [heptan-1-ol]: 5.947 ± 0.12 mPa·s.
On the same count and under the same terms, in the case of `CCCCCCCCCO` [nonan-1-ol] it was 9.519 ± 0.2 mPa·s.
As for `CCCCCCCCO` [octan-1-ol], the viscosity amounted to 7.39 ± 0.15 mPa·s.
Still for that read-out and setting: next, `CCCCCO` [pentan-1-ol]: 3.441 ± 0.072 mPa·s.

The series is the same for the next values; noted with them: 303.15 K; 100 kPa; Liquid.
With `CCCCO` [butan-1-ol], the mass density was determined as 802.1 ± 1.3 kg/m3.
For the compound `CCCCCCCCCCO` [decan-1-ol], the mass density amounted to 823 ± 1.2 kg/m3.
Same read-out and setting: in the case of `CCO` [ethanol] it was 781.1 ± 1.4 kg/m3.
Same read-out and setting: in the case of `CCCCCCCO` [heptan-1-ol] it was 815.6 ± 1.3 kg/m3; in that of `CCCCCCCCCO` [nonan-1-ol], 821.3 ± 1.3 kg/m3.
For `CCCCCCCCO` [octan-1-ol], the mass density was 818.4 ± 1.3 kg/m3.
The same measure, in the same setting: in the case of `CCCCCO` [pentan-1-ol] it was 807.5 ± 1.3 kg/m3.

Still in this series, the particulars now being: 303.15 K; 100 kPa; Liquid; Capillary tube (Ostwald / Ubbelohde) method.
Take `CCCCO` [butan-1-ol]: the viscosity was 2.236 ± 0.046 mPa·s.
Still for that read-out and setting: in the case of `CCCCCCCCCCO` [decan-1-ol] it was 9.61 ± 0.2 mPa·s; in that of `CCO` [ethanol], 0.996 ± 0.021 mPa·s and 0.994 ± 0.021 mPa·s; in that of `CCCCCCCO` [heptan-1-ol], 5.041 ± 0.11 mPa·s.
Still for that read-out and setting: in the case of `CCCCCCCCCO` [nonan-1-ol] it was 7.806 ± 0.16 mPa·s.
On to `CCCCCCCCO` [octan-1-ol], for which the viscosity was determined as 6.306 ± 0.13 mPa·s.
`CCCCCO` [pentan-1-ol]: the viscosity was 2.99 ± 0.062 mPa·s.

The same series, now with this note: 313.15 K; 100 kPa; Liquid.
As to `CCCCO` [butan-1-ol], the mass density came out at 794.3 ± 1.3 kg/m3.
Turning to `CCCCCCCCCCO` [decan-1-ol], the mass density was determined as 816.2 ± 1.3 kg/m3.
Consider `CCO` [ethanol], for which the mass density was found to be 772.3 ± 1.4 kg/m3.
Still for that read-out and setting: next, `CCCCCCCO` [heptan-1-ol]: 808.4 ± 1.4 kg/m3; `CCCCCCCCCO` [nonan-1-ol]: 814.3 ± 1.4 kg/m3; `CCCCCCCCO` [octan-1-ol]: 811.4 ± 1.3 kg/m3.
`CCCCCO` [pentan-1-ol]: the mass density was 800 ± 1.4 kg/m3.

Staying with this series, now noted: 313.15 K; 100 kPa; Liquid; Capillary tube (Ostwald / Ubbelohde) method.
For `CCCCO` [butan-1-ol], the viscosity was found to be 1.736 ± 0.036 mPa·s.
Same read-out and setting: in the case of `CCCCCCCCCCO` [decan-1-ol] it was 6.9 ± 0.14 mPa·s.
`CCO` [ethanol]: the viscosity is 0.842 ± 0.018 mPa·s.
Consider `CCCCCCCO` [heptan-1-ol], for which the viscosity is 3.802 ± 0.08 mPa·s.
As for `CCCCCCCCCO` [nonan-1-ol], the viscosity is on record as 5.668 ± 0.12 mPa·s.
With `CCCCCCCCO` [octan-1-ol], the viscosity is 4.587 ± 0.095 mPa·s.
Turning to `CCCCCO` [pentan-1-ol], the viscosity came out at 2.263 ± 0.047 mPa·s.
